Data from US4107309A, “Substituted imidazo[1,2-d]-as-triazines” (American Cyanamid Company, priority 1977, dated 1978).

How the values were obtained:
[1] = system: mouse passive cutaneous anaphylaxis (IgE and IgG lesions); assay: mouse passive cutaneous anaphylaxis (PCA) test; format: in vivo; conditions: 50 mg./kg intraperitoneally at -1 hour; active if IgE or IgG lesion area significantly smaller than control
Description: Anti-asthma activity was determined by the mouse passive cutaneous anaphylaxis (PCA) test as follows.
Female mice (Charles River Breeding Labs.), weighing 20-22 gm. are inoculated intraperitoneally at approximately three weeks of age with 0.5 ml. of Timothy pollen antigen in complete Freund's adjuvant. The sensitizing antigen is prepared by suspending 60 mg. of Timothy antigen (Phleum pratense) in 6 ml. of Freund's Complete Adjuvant (Difco Labs.). Approximately 3-5 weeks after inoculation, ascitic fluid is removed from responding mice and tested for IgE and IgG type antibody by mouse PCA as follows:
Samples of ascitic fluid are diluted 1:10 and 50 μl are injected intradermally into five mice. The mice are challenged intravenously with antigen and Evans blue dye 48 hours later. Fifteen minutes after challenge, the dorsal skin is removed and examined for blue spots. […]
At -50 hour (relative to antigen challenge at 0 hour) 50 μl of IgE is injected intradermally on the left side of a 25 gm. female mouse, posterior to the axilla at the level of the diaphragm. […] Challenge and reading are performed in serial order so that reading of the assay is essentially blind. […] The largest and smallest diameters of the lesion and a qualitative estimate of intensity of color are recorded. […] IgE and IgG lesions are analyzed independently. […]

[2] = system: mouse skin cyclic-AMP phosphodiesterase; assay: mouse skin phosphodiesterase (PDE) inhibition test; format: biochemical; conditions: for Mouse Skin Phosphodiesterase: test compound 10 ug./ml, active if it inhibits more than theophylline (to 50% of control at 1 mM or to 80% of control at 0.05 mM); for phosphodiesterase activity, % of control: reference level used as activity criterion
Description: The novel compounds of the present invention are active in inhibiting the enzyme cyclic-AMP phosphodiesterase which is responsible for the metabolism of cyclic adenosine monophosphate which is usually simply referred to as cyclic AMP. As such, they are useful in the treatment of psoriasis, a disease in which the epidermal cyclic AMP levels are reported to be decreased. Also as such, they are useful in the treatment of asthma, since elevated levels of cyclic AMP in most cells are reported to inhibit the release of histamine and other mediators and since elevated levels of cyclic AMP in bronchial smooth muscle are reported to cause bronchodilation. See Ann. Reports in Medicinal Chem., Vol. 10, 197 (1975).
The inhibition of phosphodiesterase is determined by the mouse skin phosphodiesterase (PDE) inhibition test as follows:
Hairless mice (Jackson Laboratories), 3-4 months old are killed by cervical dislocation and their skins removed. Epidermal slices are taken at a thickness of 0.2 mm. The slices are weighed and homogenized at 100 mg./ml. in ice-cold tris-HCl buffer (0.04M, pH 8, containing 0.005M MgCl2). Homogenates are centrifuged at 17,000 × gravity for 30 minutes. The supernatants are divided into aliquots which are stored at -20° C. Dilutions of the PDE are made with tris-HCl buffer just prior to use.
AG1-X2®, 200-400 mesh (a polystyrene anionic exchange resin 8% cross linked from Bio-Rad Lab.) is washed with 0.5N HCl, 0.5N NaOH, 0.5N HCl and repeatedly with double distilled water to pH 5. The resin is allowed to settle and 2 volumes of water are added to one volume of settled resin.
^3 H-Cyclic AMP (21 c/m mole, Schwarz-Mann Inc.) is purified by addition of 0.1 to 0.2 ml. of stock (in 50% ethanol) to 5 ml. of anion exchange resin and 0.4 ml. of tris-HCl buffer. The mixture is vortexed, centrifuged at 1200 × gravity for 5 minutes and the supernatant is discarded. The resin is washed in the same manner eight more times with two volumes of tris-HCl buffer. Resin bound ^3 H-cyclic AMP is eluted by two successive washings with 4 ml. of 0.025N HCl (resin pH = 2.0). After centrifugation, the pooled acid washes containing ^3 H-cyclic AMP are aliquoted and lyophilized. The material is stored dry at -20° C. and reconstituted with tris-HCl buffer just prior to use with a volume sufficient to give approximately 200,000 CPM/0.1 ml.
PDE activity is measured by the method of W. J. Thompson and N. N. Appleman, Biochemistry 10, 311 (1971). Assays are conducted in 12 × 75 mm. polypropylene test tubes. The reaction mixture consists of ^3 H-cyclic AMP (200,000 CPM), unlabeled cyclic AMP, PDE (100 ug. protein) and test compounds which are prepared by dissolving the compounds in methanol at a concentration of 10 mg./ml. and then dilution of tris-HCl buffer. Final concentration of the test compounds in the incubation mixture is 10 ug./ml. The total volume of the incubation mixture is increased to 0.4 ml. with tris-HCl buffer containing 3.75 millimoles of 2-mercaptoethanol. The enzyme is incubated for 10 minutes at room temperature in the presence of the test compounds or buffer prior to the addition of the mixture of ^3 H-cyclic AMP and unlabeled cyclic AMP. Reactions are run at 30° C. for 15 minutes and then terminated by immersing in acetone-dry ice until frozen, followed by boiling for 3 minutes. […]

| Mouse Skin Phosphodiesterase [2] | SMILES | MOUSE PCA TEST [1] | phosphodiesterase activity, % of control ([2]; 0.05 mM concentration) | phosphodiesterase activity, % of control ([2]; 1 mM concentration) |
| --- | --- | --- | --- | --- |
| Active | c1coc(CNc2nncc3nccn23)c1 [5-(Furfurylamino)-imidazo[1,2-d]-as-triazine] | – | – | – |
| Active | CSc1nncc2nccn12 [5-(Methylthio)-imidazo[1,2-d]-as-triazine] | – | – | – |
| – | Cn1c(=O)c2[nH]cnc2n(C)c1=O [theophylline, reference compound] | – | 80 % of control | 50 % of control |

| SMILES | Mouse Skin Phosphodiesterase [2] | MOUSE PCA TEST [1] | phosphodiesterase activity, % of control ([2]; 0.05 mM concentration) | phosphodiesterase activity, % of control ([2]; 1 mM concentration) |
| --- | --- | --- | --- | --- |
| CN1CCN(c2nncc3nccn23)CC1 [5-(4-Methyl-1-piperazinyl)-imidazo[1,2-d]-as-triazine] | Active | Accept | – | – |
